row,SMILES,melting point
1,"Cn1cncc1C(O)(c1ccc(Cl)cc1)c1ccc2c(c1)c(-c1nc(-c3ccccc3)cs1)cc(=O)n2C (centres unmarked) [Example B4, 6-[(4-chlorophenyl)hydroxy(1-methyl-1H-imidazol-5-yl)methyl]-1-methyl-4-(4-phenyl-2-thiazolyl)-2(1H)-quinolinone]",200 °C
2,"O=c1cc(-n2ccnc2)c2cc(C(c3ccc(Cl)cc3)n3ccnc3)ccc2[nH]1 (centres unmarked) [Example B1, 6-[(4-chlorophenyl)-1H-imidazol-1-ylmethyl]-4-(1H-imidazol-1-yl)-2(1H)-quinolinone]",242.3 °C
3,"Cn1cncc1C(O)(c1ccc(Cl)cc1)c1ccc2c(c1)c(-c1cccs1)cc(=O)n2C (centres unmarked) [Example B2, 6-[(4-chlorophenyl)hydroxy(1-methyl-1H-imidazol-5-yl)methyl]-1-methyl-4-(2-thienyl)-2(1H)-quinolinone]",> 260 °C
4,"Cn1cncc1C(O)(c1ccc(Cl)cc1)c1ccc2[nH]c(=O)cc(-c3cccnc3)c2c1 (centres unmarked) [Example B3, 6-[(4-chlorophenyl)hydroxy(1-methyl-1H-imidazol-5-yl)methyl]-4-(3-pyridinyl)-2(1H)-quinolinone]",> 250 °C

# Next, values leading:
row,melting point,SMILES
1,237 °C,"Cn1cncc1C(N)(c1ccc(Cl)cc1)c1ccc2c(c1)c(-c1nc(-c3ccccc3)cs1)cc(=O)n2C (centres unmarked) [Example B7, 6-[amino(4-chlorophenyl)(1-methyl-1H-imidazol-5-yl)methyl]-1-methyl-4-(4-phenyl-2-thiazolyl)-2(1H)-quinolinone]"
2,190 °C,"Cn1c(=O)cc(-c2nc(-c3ccccc3)cs2)c2cc(C(c3ccc(Cl)cc3)c3cnc(-c4ccccc4)[nH]3)ccc21 (centres unmarked) [Example B9 (F2), 6-[(4-chlorophenyl)(2-phenyl-1H-imidazol-5-yl)methyl]-1-methyl-4-(4-phenyl-2-thiazolyl)-2(1H)-quinolinone]"
3,244 °C,"CC(=O)NC(c1ccc(Cl)cc1)(c1ccc2c(c1)c(-c1nc(-c3ccccc3)cs1)cc(=O)n2C)c1cncn1C (centres unmarked) [Example B8, N-[(4-chlorophenyl)[1,2-dihydro-1-methyl-2-oxo-4-(4-phenyl-2-thiazolyl)-6-quinolinyl](1-methyl-1H-imidazol-5-yl)methyl]-acetamide]"
4,110 °C,"Cn1c(=O)cc(CCc2ccc(Cl)s2)c2cc(C(O)(c3ccc(Cl)cc3)c3cccnc3)ccc21 (centres unmarked) [Example B13, 6-[(4-chlorophenyl)hydroxy-3-pyridinylmethyl]-4-[2-(5-chloro-2-thienyl)ethyl]-1-methyl-2(1H)-quinolinone]"
5,100 °C,"Cn1c(=O)cc(CCc2ccc(Cl)s2)c2cc(C(N)(c3ccc(Cl)cc3)c3cccnc3)ccc21 (centres unmarked) [Example B14, 6-[amino(4-chlorophenyl)-3-pyridinylmethyl]-4-[2-(5-chloro-2-thienyl)ethyl]-1-methyl-2(1H)-quinolinone]"
6,128 °C,"Cn1cncc1C(O)(c1ccc(Cl)cc1)c1ccc2c(c1)c(CCc1ccc(Cl)s1)cc(=O)n2C (centres unmarked) [Example B10, 6-[(4-chlorophenyl)hydroxy(1-methyl-1H-imidazol-5-yl)methyl]-4-[2-(5-chloro-2-thienyl)ethyl]-1-methyl-2(1H)-quinolinone]"
7,171 °C,"Cn1cncc1C(c1ccc(Cl)cc1)c1ccc2c(c1)c(-c1nc(-c3ccccc3)cs1)cc(=O)n2C (centres unmarked) [Example B6, 6-[(4-chlorophenyl)(1-methyl-1H-imidazol-5-yl)methyl]-1-methyl-4-(4-phenyl-2-thiazolyl)-2(1H)-quinolinone]"

# Reference: patent US20060135769A1, “Farnesyl transferase inhibiting 4-heterocyclyl-quinoline and quinazoline derivatives” (priority 2000, published 2006)
